In the test the target is Acetylcholinesterase (Homo sapiens, UniProt P22303). The test is described as follows: Inhibition of AChE (unknown origin) using acetylthiocholine chloride as substrate after 15 min by Ellman's method.
Chain of Acetylcholinesterase (P22303 whole entry): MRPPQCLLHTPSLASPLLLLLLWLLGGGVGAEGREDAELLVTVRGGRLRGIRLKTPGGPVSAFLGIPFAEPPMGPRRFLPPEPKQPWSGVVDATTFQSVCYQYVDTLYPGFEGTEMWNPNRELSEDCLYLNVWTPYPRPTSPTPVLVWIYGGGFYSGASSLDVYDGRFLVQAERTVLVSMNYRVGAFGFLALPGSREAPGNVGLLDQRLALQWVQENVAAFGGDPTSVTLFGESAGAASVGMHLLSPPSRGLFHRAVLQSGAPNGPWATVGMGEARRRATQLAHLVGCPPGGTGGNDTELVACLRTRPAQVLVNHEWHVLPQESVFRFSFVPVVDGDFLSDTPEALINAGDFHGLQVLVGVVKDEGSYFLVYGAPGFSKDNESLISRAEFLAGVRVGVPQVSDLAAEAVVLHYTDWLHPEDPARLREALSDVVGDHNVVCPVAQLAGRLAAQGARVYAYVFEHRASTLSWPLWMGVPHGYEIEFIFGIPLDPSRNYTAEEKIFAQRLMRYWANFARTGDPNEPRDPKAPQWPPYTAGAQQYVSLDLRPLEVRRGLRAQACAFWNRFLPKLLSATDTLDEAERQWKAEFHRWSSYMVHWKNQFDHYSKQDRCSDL
`CCOC(=O)c1c(C)nc2nc3c(c(N)c2c1-c1ccccc1)CCCCC3` showed an IC50 of 20.9 µM.

With `CCOC(=O)c1c(C)nc2nc3c(c(N)c2c1-c1ccc(Cl)cc1)CCCCC3`, the IC50 is 19.1 µM.

Consider `CCOC(=O)c1c(C)nc2nc3c(c(N)c2c1-c1ccncc1)CCCC3`, for which the IC50 is 1.41 µM.

Take `CCOC(=O)C1=C(C)Oc2nc3c(c(N)c2[C@H]1c1ccncc1)CCCCC3`: it took 8.51 µM to reach half-maximal inhibition (IC50).

In turn, `CCOC(=O)c1c(C)nc2nc3c(c(N)c2c1-c1ccc(OC)c(OC)c1)CCCC3` had an IC50 of 1.29 µM.

Compound `CCOC(=O)C1=C(C)Nc2nc3c(c(N)c2[C@H]1c1ccccc1)CCCC3` gave an IC50 of 0.0794 µM.

On to `CCOC(=O)c1c(C)nc2nc3c(c(N)c2c1-c1ccccc1OC)CCCCC3`, for which inhibition was half-maximal at 21.9 µM (IC50).

Take `CCOC(=O)c1c(C)nc2nc3c(c(N)c2c1-c1ccc(OC)cc1)CCCCC3`: the IC50 was 1.35 µM.

`CCOC(=O)C1=C(C)Oc2nc3c(c(N)c2[C@H]1c1cccc(OC)c1)CCCCC3` had an IC50 of 12.9 µM.

Turning to `CCOC(=O)C1=C(C)Oc2nc3c(c(N)c2[C@H]1c1cccs1)CCCCC3`, inhibition was half-maximal at 14.5 µM (IC50).

`CC1(C)CC(=O)C2=C(C1)Nc1nc3c(c(N)c1[C@H]2c1ccncc1)CCCC3` gave an IC50 of 0.603 µM.

`CC1(C)CC(=O)C2=C(C1)Oc1nc3c(c(N)c1[C@H]2c1cccc([N+](=O)[O-])c1)CCCC3` had an IC50 of 12 µM.

`CCOC(=O)C1=C(C)Oc2nc3c(c(N)c2[C@H]1c1cccnc1OC)CCCC3` had an IC50 of 3.89 µM.

Consider `CCOC(=O)C1=C(C)Oc2nc3c(c(N)c2[C@H]1c1ccc(OC)c(OC)c1)CCCC3`, for which the IC50 was 4.57 µM.

Regarding `CCOC(=O)C1=C(C)Oc2nc3c(c(N)c2[C@H]1c1ccc(C#N)cc1)CCCC3`, the IC50 is 3.47 µM.

`CCOC(=O)C1=C(C)Oc2nc3c(c(N)c2[C@H]1c1ccncc1)CCCC3` had an IC50 of 3.02 µM.

For `CCOC(=O)C1=C(C)Oc2nc3c(c(N)c2[C@H]1c1ccncc1)CCC3`, the IC50 was 6.61 µM.

With `CCOC(=O)c1c(C)nc2nc3c(c(N)c2c1-c1ccc(OC)c(OC)c1)CCCCC3`, the midpoint of inhibition, the IC50, lay at 6.46 µM.

The compound `COc1ccc([C@H]2C3=C(CC(C)(C)CC3=O)Oc3nc4c(c(N)c32)CCCC4)cc1` showed an IC50 of 40.7 µM.

Regarding `CCOC(=O)C1=C(C)Oc2nc3c(c(N)c2[C@H]1c1cccc([N+](=O)[O-])c1)CCCC3`, the IC50 was 1.91 µM.

The compound `CCOC(=O)C1=C(C)Oc2nc3c(c(N)c2[C@H]1c1ccccc1)CCC3` had an IC50 of 3.89 µM.

On to `CC1(C)CC(=O)C2=C(C1)Nc1nc3c(c(N)c1[C@H]2c1ccccc1)CCCC3`, for which it took 0.324 µM to reach half-maximal inhibition (IC50).

As to `CCOC(=O)c1c(C)nc2nc3c(c(N)c2c1-c1ccc(C)cc1)CCCCC3`, the IC50 was 12.9 µM.

`CCOC(=O)C1=C(C)Oc2nc3c(c(N)c2[C@H]1c1cccnc1)CCCC3` had an IC50 of 7.08 µM.

On to `CCOC(=O)c1c(C)nc2nc3c(c(N)c2c1-c1ccc(Cl)cc1)CCCC3`, for which the IC50 was 1.29 µM.

Regarding `CCOC(=O)C1=C(C)Oc2nc3c(c(N)c2[C@H]1c1cccnc1Cl)CCCC3`, 2.14 µM corresponded to half-maximal inhibition (IC50).

For the compound `CCOC(=O)c1c(C)nc2nc3c(c(N)c2c1-c1cccc([N+](=O)[O-])c1)CCCC3`, half-maximal inhibition (IC50) required 0.933 µM.

With `CCOC(=O)C1=C(C)Oc2nc3c(c(N)c2[C@H]1c1cccs1)CCC3`, the IC50 is 27.5 µM.

Compound `CCOC(=O)c1c(C)nc2nc3c(c(N)c2c1-c1cccc([N+](=O)[O-])c1)CCCCC3` gave an IC50 of 14.1 µM.

In turn, `CCOC(=O)c1c(C)nc2nc3c(c(N)c2c1-c1ccccc1)CCCCCC3` had a half-inhibitory concentration (IC50) of 17 µM.

For the compound `CCOC(=O)C1=C(C)Oc2nc3c(c(N)c2[C@H]1c1ccco1)CCCC3`, the IC50 was 1.7 µM.

Compound `CCOC(=O)C1=C(C)Oc2nc3c(c(N)c2[C@H]1c1ccc(OC)c(OC)c1)CCC3` had an IC50 of 26.9 µM.

`COc1ccc([C@H]2C3=C(CC(C)(C)CC3=O)Nc3nc4c(c(N)c32)CCCC4)cc1` gave an IC50 of 0.219 µM.

On to `CCOC(=O)C1=C(C)Oc2nc3c(c(N)c2[C@H]1c1ccccc1OC)CCCCC3`, for which the IC50 was 20.9 µM.

For `CCOC(=O)c1c(C)nc2nc3c(c(N)c2c1-c1ccccc1)CCCC3`, half-maximal inhibition (IC50) required 0.813 µM.

As to `CCOC(=O)C1=C(C)Oc2nc3c(c(N)c2[C@H]1c1cccc(OC)c1)CCC3`, the IC50 is 24 µM.

Compound `CCOC(=O)c1c(C)nc2nc3c(c(N)c2c1-c1ccncc1)CCC3` showed an IC50 of 8.13 µM.

Compound `CCOC(=O)c1c(C)nc2nc3c(c(N)c2c1-c1ccccc1)CCC3` had an IC50 of 12 µM.

Compound `Cc1nc2nc3c(c(N)c2c(-c2ccccc2)c1C(=O)OC(C)C)CCCC3` gave an IC50 of 1.2 µM.

Take `CC1(C)CC(=O)C2=C(C1)Oc1nc3c(c(N)c1[C@H]2c1ccccc1C(F)(F)F)CCCC3`: the IC50 is 17.8 µM.

`CCOC(=O)C1=C(C)Nc2nc3c(c(N)c2[C@H]1c1ccc(C)cc1)CCCC3` gave an IC50 of 0.0912 µM.

In turn, `COc1cccc([C@H]2C3=C(CC(C)(C)CC3=O)Oc3nc4c(c(N)c32)CCCC4)c1` showed an IC50 of 21.4 µM.

On to `CCOC(=O)C1=C(C)Oc2nc3c(c(N)c2[C@H]1c1cccnc1Br)CCCC3`, for which inhibition was half-maximal at 1.86 µM (IC50).

On to `CCOC(=O)C1=C(C)Oc2nc3c(c(N)c2[C@H]1c1ccc(OC)cc1)CCCC3`, for which half-maximal inhibition (IC50) was put at 0.871 µM.

Compound `CCOC(=O)C1=C(C)Oc2nc3c(c(N)c2[C@H]1c1ccc(Cl)cc1)CCCC3` showed an IC50 of 1.95 µM.

Take `Cc1ccc([C@H]2C3=C(CC(C)(C)CC3=O)Nc3nc4c(c(N)c32)CCCC4)cc1`: the midpoint of inhibition, the IC50, lay at 0.229 µM.

With `CCOC(=O)C1=C(C)Oc2nc3c(c(N)c2[C@H]1c1ccccc1)CCCC3`, the IC50 is 1.55 µM.

For `COc1ccccc1[C@H]1C2=C(CC(C)(C)CC2=O)Oc2nc3c(c(N)c21)CCCC3`, the IC50 was 7.08 µM.

`CCOC(=O)C1=C(C)Oc2nc3c(c(N)c2[C@H]1c1cccc(OC)c1)CCCC3` gave an IC50 of 7.76 µM.

As for `CC1(C)CC(=O)C2=C(C1)Oc1nc3c(c(N)c1[C@H]2c1ccc(F)cc1)CCCC3`, the IC50 was 69.2 µM.

`CCOC(=O)c1c(C)nc2nc3c(c(N)c2c1-c1ccc(OC)cc1)CCCCCC3` showed an IC50 of 17 µM.

As for `Cc1ccc([C@H]2C3=C(CC(C)(C)CC3=O)Oc3nc4c(c(N)c32)CCCC4)cc1`, the IC50 was 51.3 µM.

The compound `CCOC(=O)C1=C(C)Oc2nc3c(c(N)c2[C@H]1c1ccc(C)cc1)CCCC3` showed an IC50 of 1.82 µM.

On to `CCOC(=O)C1=C(C)Oc2nc3c(c(N)c2[C@H]1c1cccnc1)CCCCC3`, for which the IC50 was 32.4 µM.

`CCOC(=O)c1c(C)nc2nc3c(c(N)c2c1-c1cccc(OC)c1)CCCC3` gave an IC50 of 1.2 µM.

Turning to `CCOC(=O)c1c(C)nc2nc3c(c(N)c2c1-c1ccncc1)CCCCC3`, the IC50 was 5.13 µM.

For `CCOC(=O)c1c(C)nc2nc3c(c(N)c2c1-c1ccc(OC)cc1)CCCC3`, the IC50 is 8.91 µM.

Compound `CCOC(=O)C1=C(C)Oc2nc3c(c(N)c2[C@H]1c1cccs1)CCCC3` showed a concentration for half-maximal inhibition (IC50) of 24.5 µM.

For the compound `CCOC(=O)c1c(C)nc2nc3c(c(N)c2c1-c1ccc(OC)cc1)CCC3`, half-maximal inhibition (IC50) was put at 13.8 µM.

The compound `CCOC(=O)C1=C(C)Nc2nc3c(c(N)c2[C@H]1c1ccc([N+](=O)[O-])cc1)CCCC3` had an IC50 of 0.603 µM.

Compound `CCOC(=O)c1c(C)nc2nc3c(c(N)c2c1-c1ccc(F)cc1)CCCCC3` had an IC50 of 5.37 µM.

With `CCOC(=O)C1=C(C)Oc2nc3c(c(N)c2[C@H]1c1ccc(OC)c(OC)c1)CCCCC3`, the IC50 is 33.1 µM.

For `CC1(C)CC(=O)C2=C(C1)Oc1nc3c(c(N)c1[C@H]2c1ccccc1)CCCC3`, the IC50 is 49 µM.

In turn, `CC1(C)CC(=O)C2=C(C1)Oc1nc3c(c(N)c1[C@H]2c1ccc([N+](=O)[O-])cc1)CCCC3` showed an IC50 of 93.3 µM.

On to `CCOC(=O)c1c(C)nc2nc3c(c(N)c2c1-c1ccc(F)cc1)CCCC3`, for which 0.708 µM corresponded to half-maximal inhibition (IC50).

On to `CC1(C)CC(=O)C2=C(C1)Nc1nc3c(c(N)c1[C@H]2c1ccc(F)cc1)CCCC3`, for which 0.537 µM corresponded to half-maximal inhibition (IC50).

The values are drawn from ChEMBL document CHEMBL3045165, “3D-QSAR study of multi-target-directed AchE inhibitors based on autodocking” (Med Chem Res, 2012).
